{
  "source": "patent US8993595B2",
  "about": "“Macrocyclic serine protease inhibitors” (priority 2009, dated 2015)",
  "key": {"[1]": {"system": "replicon bearing NS5B Mutation S282T", "protocol": "(§1) The activity of compound 52 was evaluated against replicons bearing single protease inhibitor-resistance mutations as compared to its activity against the wild-type replicon. Mutations were introduced into a genotype 1b luciferase-replicon by site-directed mutagenesis. Compound activity was measured in cells transiently transfected with in vitro transcribed wild-type or mutant luciferase-replicon RNA by luciferase assay after 4-day treatment. Replication capacity was determined in untreated transfected cells by comparing the luciferase activity at 4 hrs and 4 days post-transfection.\n(§2) The activity of compound 52 was also tested against replicons bearing a single polymerase inhibitor-resistance mutation. Each mutation confers resistance to a known polymerase inhibitor as reported in the literature."}, "[2]": {"system": "replicon bearing NS5B Mutation C316Y", "protocol": "as §1, §2"}, "[3]": {"system": "replicon bearing NS5B Mutation M414T", "protocol": "as §1, §2"}, "[4]": {"system": "replicon bearing NS5B Mutation C445Y", "protocol": "as §1, §2"}, "[5]": {"system": "replicon bearing NS5B Mutation C445F", "protocol": "as §1, §2"}, "[6]": {"system": "replicon bearing NS5B Mutation Y448H", "protocol": "as §1, §2"}, "[7]": {"system": "replicon bearing NS5B Mutation M423T", "protocol": "as §1, §2"}, "HCV NS3-NS4A protease": {"biological_target": "T1, HCV NS3-NS4A protease (Hepatitis C virus genotype 1a, UniProt P27958)", "T1 construct": "HCV NS3-NS4A protease, which was obtained according to Taremi et al; made in house", "T1 sequence (P27958 1027-1208)": "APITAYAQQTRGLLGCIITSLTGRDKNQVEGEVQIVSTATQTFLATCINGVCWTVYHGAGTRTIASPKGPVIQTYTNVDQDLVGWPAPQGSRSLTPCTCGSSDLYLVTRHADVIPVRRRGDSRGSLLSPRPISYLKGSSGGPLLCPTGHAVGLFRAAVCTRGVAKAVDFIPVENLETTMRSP", "test": "HCV Protease Assay (SensoLyte 620 HCV Protease Assay kit)", "format": "biochemical", "settings": "1.2 nM HCV NS3-NS4A protease, 60 min, room temperature", "protocol": "Measurement of the inhibitory effect of compounds on HCV protease activity was performed with the SensoLyte™ 620 HCV Protease Assay kit from AnaSpec, Inc. (San Jose, Calif.) under conditions described by the supplier using 1.2 nM HCV NS3-NS4A protease, which was obtained according to Taremi et al. (Protein Science, 1998, 7, 2143-2149). The compounds were tested at a variety of concentrations in assay buffer containing a final DMSO concentration of 5%. Reactions were allowed to proceed for 60 min at room temperature and fluorescence measurements were recorded with a Tecan Infinity Spectrofluorimeter. The IC50 values were determined from the percent inhibition versus concentration data using a sigmoidal non-linear regression analysis based on four parameters with Tecan Magellan software."}, "clinical": {"test": "clinical", "settings": "human, in vivo; for AUC(0-inf): AUC0-∞"}, "[8]": {"system": "JFH-1 (genotype 2a) virus in HPC cells", "test": "HCV in vitro infection core ELISA assay", "format": "cell-based", "protocol": "HPC cells were infected with JFH-1 (genotype 2a) and treated with the compound for 4 days (virus inoculum was removed after 16 hrs). Remaining virus was measured by an anti-HCV core ELISA. Compound cytotoxicity was also measured in parallel using a colorimetric proliferation assay as described in Example 5.\nThe HCV in vitro infection core ELISA assay measures the ability of a test compound to inhibit replication of an infectious HCV (strain JFH-1; genotype 2a) in cell culture. […] We have developed this model for determining the efficacy of antiviral compounds against an infectious virus in vitro using HCV producing cells (HPC), a proprietary Huh-7-derived cell sublineage capable of propagating the JFH-1 HCV virus. The readout of the assay is quantification of HCV core protein by ELISA 5 days post infection with JFH-1 virus and treatment with a test compound. […]\nOPD solution was prepared using 1 OPD tablet+12 mL citrate/phosphate buffer (16 mM citric acid, 27 mM Na2HPO4) plus 5 μL 30% H2O2 per plate. […] The reaction was stopped with 100 μL/well of 2N H2SO4, and absorbance measured at A490 nm in a Victor^3 V 1420 multilabel counter (Perkin Elmer). The EC50 values for each compound were calculated from dose response curves from the resulting best-fit equations determined by Microsoft Excel and XLfit 4.1 software. […]"}, "[9]": {"settings": "50 mg, single dose 50 mg, human volunteers"}, "[10]": {"settings": "100 mg, single dose 100 mg, human volunteers"}, "[11]": {"settings": "200 mg, single dose 200 mg, HCV patients, N = 2"}, "[12]": {"settings": "200 mg, single dose 200 mg, human volunteers"}, "[13]": {"settings": "400 mg, single dose 400 mg Fasted, human volunteers"}, "[14]": {"settings": "400 mg, single dose 400 mg, human volunteers"}},
  "data": [
    {"smiles": "COc1ccc2c(O[C@H]3CCN4C(=O)N(C)CCCC/C=C\\[C@@H]5C[C@@]5(C(=O)NS(=O)(=O)C5(C)CC5)NC(=O)[C@@H]4C3)cc(-c3nc(C(F)(F)F)cs3)nc2c1C", "note": "[Compound 52, 1-methyl-cyclopropanesulfonic acid{(Z)-(1S,4R,6S,18S)-18-[7-methoxy-8-methyl-2-(4-trifluoromethyl-thiazol-2-yl)-quinolin-4-yloxy]-13-methyl-2,14-dioxo-3,13,15-triaza-tricyclo[13.4.0.0*4,6*]nonadec-7-ene-4-carbonyl}amide]", "values": [
      {"measurement": "Fold-Change", "setting": "[1]", "value": "1.4 ± 0.6"},
      {"measurement": "Fold-Change", "setting": "[2]", "value": "1.7 ± 0.6"},
      {"measurement": "Fold-Change", "setting": "[3]", "value": "1.6 ± 0.5"},
      {"measurement": "Fold-Change", "setting": "[4]", "value": "0.9 ± 0.07"},
      {"measurement": "Fold-Change", "setting": "[5]", "value": "0.9 ± 0.07"},
      {"measurement": "Fold-Change", "setting": "[6]", "value": "1.7 ± 0.4"},
      {"measurement": "Fold-Change", "setting": "[7]", "value": "0.9 ± 0.08"},
      {"measurement": "IC50", "setting": "HCV NS3-NS4A protease", "value": "< 1000", "unit": "nM"},
      {"measurement": "AUC(0-inf)", "setting": "clinical; [9]", "value": "2020 ± 744", "unit": "ng·h/mL"},
      {"measurement": "Cmax", "setting": "clinical; [9]", "value": "346 ± 87", "unit": "ng/mL"},
      {"measurement": "half-life", "setting": "clinical; 50 mg, T1/2, single dose 50 mg, human volunteers", "value": "13 ± 6", "unit": "h"},
      {"measurement": "Tmax", "setting": "clinical; [9]", "value": 3, "unit": "h"},
      {"measurement": "AUC(0-inf)", "setting": "clinical; [10]", "value": "3540 ± 1010", "unit": "ng·h/mL"},
      {"measurement": "Cmax", "setting": "clinical; [10]", "value": "467 ± 72", "unit": "ng/mL"},
      {"measurement": "half-life", "setting": "clinical; 100 mg, T1/2, single dose 100 mg, human volunteers", "value": "24 ± 7", "unit": "h"},
      {"measurement": "Tmax", "setting": "clinical; [10]", "value": 3, "unit": "h"},
      {"measurement": "AUC(0-inf)", "setting": "clinical; [11]", "value": 13900, "unit": "ng·h/mL"},
      {"measurement": "AUC(0-inf)", "setting": "clinical; [12]", "value": "7240 ± 2930", "unit": "ng·h/mL"},
      {"measurement": "Cmax", "setting": "clinical; [11]", "value": 1060, "unit": "ng/mL"},
      {"measurement": "Cmax", "setting": "clinical; [12]", "value": "982 ± 463", "unit": "ng/mL"},
      {"measurement": "half-life", "setting": "clinical; 200 mg, T1/2, single dose 200 mg, HCV patients, N = 2", "value": 32, "unit": "h"},
      {"measurement": "half-life", "setting": "clinical; 200 mg, T1/2, single dose 200 mg, human volunteers", "value": "26 ± 7", "unit": "h"},
      {"measurement": "Tmax", "setting": "clinical; [11]", "value": 3.5, "unit": "h"},
      {"measurement": "Tmax", "setting": "clinical; [12]", "value": 3, "unit": "h"},
      {"measurement": "AUC(0-inf)", "setting": "clinical; 400 mg", "value": "9460 ± 2330", "unit": "ng·h/mL"},
      {"measurement": "AUC(0-inf)", "setting": "clinical; [13]", "value": "4190 ± 1590", "unit": "ng·h/mL"},
      {"measurement": "Cmax", "setting": "clinical; [13]", "value": "368 ± 89", "unit": "ng/mL"},
      {"measurement": "Cmax", "setting": "clinical; [14]", "value": "1120 ± 505", "unit": "ng/mL"},
      {"measurement": "half-life", "setting": "clinical; 400 mg, T1/2, single dose 400 mg Fasted, human volunteers", "value": "15 ± 8", "unit": "h"},
      {"measurement": "half-life", "setting": "clinical; 400 mg, T1/2, single dose 400 mg, human volunteers", "value": "25 ± 7", "unit": "h"},
      {"measurement": "Tmax", "setting": "clinical; [13]", "value": 3, "unit": "h"},
      {"measurement": "Tmax", "setting": "clinical; [14]", "value": 3, "unit": "h"},
      {"measurement": "Selectivity Index", "setting": "[8]; 2a virus", "value": "2,568"},
      {"measurement": "EC50", "setting": "[8]; Hepatitis C virus, 96 h, 2a virus (JFH-1), HPC cells, 4 days, anti-HCV core ELISA", "value": "4.4 ± 0.6", "unit": "nM"}
    ]}
  ]
}
